# In US20250319067A1, “Improved Pharmacokinetics of Tryptamine Prodrugs” (Reunion Neuroscience, Inc., priority 2023, published 2025):
# Assays:
# humans = conditions: human, cited from earlier work
# [1] = molecular target: human recombinant 5-HT2A receptors (Homo sapiens, UniProt P28223); assay: 5-HT2A agonist radioligand binding assay ([125I]DOI)
# Method: (§2) Increasing concentrations of RE104 were incubated with 0.2 nM [^125I]DOI in CHO cell cultures expressing human recombinant 5-HT2B receptors.
# (§3) Radioligand concentration was measured by scintillation counting; compound binding was calculated as percent inhibition of the binding of [^125I]DOI. In agonist activity assays, test concentrations of RE104 were incubated with HEK-293 cells expressing human recombinant 5-HT2A receptors; IP1 production was detected using homogeneous time-resolved fluorescence. Activation was calculated as a percentage of the response to the positive control (10 μM 5-HT).
# (§4) Inhibition constants were calculated by using the Cheng-Prusoff equation Ki=IC50/(1+L/KD), where L=radioligand concentration and KD=radioligand affinity for the receptor (determined with a Scatchard plot). In the functional activity assay test concentrations of RE104 were 10 nM, 30 nM, 100 nM, 300 nM, 1 μM, 3 μM, 10 μM, and 30 μM. EC50 and IC50 values were determined by nonlinear regression analysis of the concentration-response curves generated with mean replicate values using Hill equation curve fitting.
# [2] = GLP 14-day extended single SC dose toxicity study in rats; conditions: Sprague Dawley, rat, plasma, sc, 10 mg/kg
# Method: In a GLP 14-day extended single SC dose toxicity study in rats, doses of 0 (PBS), 10, 25 and 75 mg/kg were evaluated. Animals were necropsied on Study Day 2 and Day 14 (also referred to as Recovery Day 13) post-dosing.
# A non-GLP dose range study was performed in the dog in order to determine an MTD. Single SC doses of 7.5, 15 and 20 mg/kg were evaluated.
# [3] = GLP 14-day extended single SC dose toxicity study in dogs; conditions: beagle, dog, plasma, sc, 8 mg/kg
# [4] = Metabolite profiling in monkey plasma after SC RE104; type: in vivo, cynomolgus monkey; conditions: pooled plasma 0 to 12 hours post dose, SC 0.5 mg/kg RE104
# Description: Blood samples were centrifuged to obtain plasma.
# [5] = system: primary human hepatocytes; assay: Metabolite profiling in plated human hepatocytes; conditions: 1 μM, pooled plated human hepatocytes
# Method: The formation of metabolites was monitored at 0, 4, 8, and 24 hours, respectively. […] Samples for positive and negative controls were determined at 0, 8, and 24 hours, respectively. RE104 and its metabolites were identified and profiled using ultrahigh-performance liquid chromatography (Supplemental Methods).
# The quenched samples were pipetting mixed, harvested, and stored at −70° C. or lower until liquid chromatography tandem mass spectrometry analysis. […] The plated human hepatocyte incubation samples were frozen at ≤−70° C. or lower immediately and thawed to room temperature before sample processing. A 500-μL aliquot of each sample was transferred to matrix tubes (1.4 mL), followed by the addition of 500-μL mixed solvent acetonitrile:methanol:for mic acid (50:50:0.1, v/v/v). The resulting mixtures were vortex mixed for 2 minutes and centrifuged at 3000 rpm for 10 minutes. The supernatants from the triplicate incubations were pooled to generate the pooled samples (1.5 mL/each) for the LC-MS analysis.
# For all metabolite identification and profiling experiments, RE104 and its metabolites were identified and profiled by UHPLC in a Shimadzu Nexeran™ UHPLC system coupled with a high-resolution mass spectrometer SCIEX 6600 Triple TOF®. Mass spectrometry analysis was carried out by using an electrospray ionization source operating in positive ion mode with full-scan TOF MS and MS/MS modes. […]
# [6] = Plasma protein binding, human plasma; type: in vitro ADME; conditions: human plasma proteins, 1 to 20 PM; read-out: plasma protein binding (bound)
# [7] = Metabolite profiling in rat plasma after SC RE104; conditions: 0- to 10-hour pooled plasma, SC 10, 25, or 75 mg/kg RE104
# Method: Metabolite profiling and identification was performed using rat, dog, and nonhuman primate plasma samples after a single SC injection of RE104 (QPS, LLC, Newark, DE, USA).
# Blood samples were centrifuged to obtain plasma. Plasma samples for rat and dog studies were pooled across time points to 1 sample per dose and sex separately; plasma samples from monkeys were pooled to generate 1 combined sample.
# Metabolite profiling and identificationFor experiments performed in rats, blood samples were collected before dose and at 15 minutes, 30 minutes, and 1, 2, 4, 6, and 10 hours after dose. Blood samples from dogs were collected before dose and at 5 minutes, 30 minutes, and 1, 2, 4, 8, 12, and 24 hours after dose. Monkey blood samples were collected before dose and at 5 minutes, 15 minutes, 30 minutes, and 1, 1.5, 2, 4, 8, and 12 hours after dose. […]
# The percent of RE104 and its metabolites in relation to the total area of compound-related material was obtained by integration of the extracted ion chromatogram peaks on the full-scan mass-chromatograms. The percent of peak area for each component relative to the total peak area was determined by using the following formula: Component % peak area=(peak area of component ×100%/total integrated peak area of compound-related material).
# [8] = Plasma protein binding, animal plasma; type: in vitro ADME; conditions: animal plasma proteins
# [9] = in PBS; cited from earlier work
# [10] = molecular target: human recombinant 5-HT2B receptors (Homo sapiens, UniProt P41595); assay: 5-HT2B agonist radioligand binding assay ([125I]DOI)
# Method: as §2, §3, §4
# in vivo [11] = conditions: male, beagle, dog, plasma, po, 5 mg/kg
# Method: Two consecutive doses were separated by z7 days. Plasma samples were analyzed using an LC-MS/MS method (lower limit of quantification of 1.00 ng/mL for both analytes).
# Pharmacokinetic parameters were calculated using Phoenix WinNonlin, version 6.3 or 8.2 (Certara, Princeton, NJ, USA).
# For dog PK assessments, approximately 0.5 mL of blood was collected via superficial vein before dose and at 5 (for IV and SC injections only), 15, and 30 minutes and 1, 2, 4, 8, 16, 24, 48, and 72 hours post dose into tubes containing K2EDTA with 10 mM Dichlorvos as the anticoagulant and stabilizer, respectively.
# healthy females = assay: Phase 1 FIH study: modified Drug Effect Questionnaire (DEQ-High); type: in vivo, human; conditions: plasma concentration below 40 ng/mL
# Method: (§1) The study was a double-blind, randomized, placebo-controlled Phase 1 single ascending dose study in up to 6 cohorts in healthy females. Eligibility was assessed during a screening period of up to 28 days prior to enrollment. For the treatment period, subjects were admitted to the clinical research unit (CRU) one day prior to the dosing (Day −1). On Day 1, all subjects will received the assigned SC dose of RE104 HCl or placebo in a fed state (after domiciling overnight and consuming a planned evening meal on Day −1 and morning meal on Day 1 while at the CRU). Subjects were allowed to select snacks from a planned menu from 4 hours following dosing. Subjects were discharged from the clinic on Day 2 (−24 hours post-dose) after all required study procedures were completed and if deemed medically fit. Subjects returned to the clinic on Day 10 (±2 days) for a follow up visit.
# The Drug Effect Questionnaire (DEQ) Feel/High is widely used in studies of acute subjective response to a variety of substances, to assess two key aspects of subjective experience: (1) the strength of substance effects and (2) desirability of substance effects (Morean et al., 2013). The modified DEQ assesses the extent to which subjects (1) feel any substance effect(s) and (2) feel high. This version of the DEQ includes the following items: “Do you feel a drug effect right now?” (FEEL); “Are you high right now?” (HIGH). FIG. 2 sets out the modified DEQ that was used.
# The modified DEQ was used as an 11-point numeric rating scale (0-10) administered by a qualified staff member. The subjects were asked to verbally respond to indicate how strongly they feel the drug effect and how high they feel on the scale of 0-10 after being administered the study drug (Kollltveit et al., 2020).
# [12] = Phase 1 FIH study: plasma pharmacokinetics (LC-MS/MS); type: in vivo; conditions: female, plasma, human; for half-life: read-out: t1/2, mean (converted)
# Method: as §1
# The concentrations of RE104 and isoprocin in plasma were determined using a validated Liquid chromatography tandem mass spectrometry (LC-MS/MS) assay.
# [13] = Rat PK after single IV or SC RE104 HCl 2 mg/kg (Example 1)
# in vivo [14] = conditions: for half-life: male, cynomolgus monkey, plasma; for mean terminal half-life: monkey
# Method: Two male cynomolgus monkeys were administered 3 treatments in a crossover study design (Calvert Laboratories, Inc, Scott Township, PA; QPS, LLC, Newark, DE, USA). In treatment 1, RE104 was administered as an IV bolus dose at 1 mg/kg. In treatment 2, RE104 was administered as an SC injection at 0.5 mg/kg, and in treatment 3, RE104 was administered PO at 5 mg/kg, with all dosing formulations prepared in phosphate buffered saline.
# human recombinant 5-HT2A receptors, sequence (P28223 whole entry): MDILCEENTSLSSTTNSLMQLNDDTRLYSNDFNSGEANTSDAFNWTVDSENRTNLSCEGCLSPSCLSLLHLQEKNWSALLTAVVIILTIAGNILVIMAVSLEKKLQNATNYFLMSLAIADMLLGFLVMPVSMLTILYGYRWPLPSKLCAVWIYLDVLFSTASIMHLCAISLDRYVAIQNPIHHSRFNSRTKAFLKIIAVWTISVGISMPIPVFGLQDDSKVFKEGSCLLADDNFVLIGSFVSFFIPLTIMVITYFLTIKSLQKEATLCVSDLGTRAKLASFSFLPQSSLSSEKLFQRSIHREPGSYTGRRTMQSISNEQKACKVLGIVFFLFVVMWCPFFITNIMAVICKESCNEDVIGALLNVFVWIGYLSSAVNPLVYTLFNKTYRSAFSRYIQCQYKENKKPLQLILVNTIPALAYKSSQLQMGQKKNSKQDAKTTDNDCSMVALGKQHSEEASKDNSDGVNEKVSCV
# human recombinant 5-HT2B receptors, sequence (P41595 whole entry): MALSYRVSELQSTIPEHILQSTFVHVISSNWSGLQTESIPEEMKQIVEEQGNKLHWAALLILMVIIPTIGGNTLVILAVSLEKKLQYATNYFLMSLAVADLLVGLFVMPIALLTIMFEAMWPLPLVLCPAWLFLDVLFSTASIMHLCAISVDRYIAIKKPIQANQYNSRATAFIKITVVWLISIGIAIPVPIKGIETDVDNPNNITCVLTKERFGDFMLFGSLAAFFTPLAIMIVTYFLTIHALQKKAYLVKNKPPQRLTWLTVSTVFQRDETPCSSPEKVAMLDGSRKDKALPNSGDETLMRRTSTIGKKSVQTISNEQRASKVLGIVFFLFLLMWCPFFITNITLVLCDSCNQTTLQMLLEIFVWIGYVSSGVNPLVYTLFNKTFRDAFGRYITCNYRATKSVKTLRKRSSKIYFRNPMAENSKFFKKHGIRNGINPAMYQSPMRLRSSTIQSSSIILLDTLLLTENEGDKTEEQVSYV
structure (smiles),measurement,setting,value
"CC(C)N(CCc1c[nH]c2cccc(O)c12)C(C)C [4-OH-DiPT, 3-(2-diisopropylamino-ethyl)-1H-indol-4-ol]",onset of effect (mild physical awareness),humans; 10 mg orally (Shulgin),≤ 1 h
same,recovery,humans; 20 mg oral dose (Shulgin),≤ 3 h
same,onset of effect,humans; 20 mg orally (Shulgin),≤ 15 min
same,IC50,"[1]; read-out: IC50 at 5-HT2A, agonist radioligand assay",150 nM
same,Ki,"[1]; read-out: binding Ki at the 5-HT2A receptor, radioligand inhibition binding, HEK-293 cells",120 nM
same,AUC(0-t),[2],1230 ng·h/mL
same,Cmax,[2],542 ng/mL
same,AUC(0-t),[3],1010 ng·h/mL
same,Cmax,[3],360 ng/mL
same,share of the total peak area,[4],4.42%
same,metabolites formed,[5],primarily producing O-glucuronide and negligible amounts of other metabolites
same,fraction unbound,[6],0.07 to 0.2
same,share of total metabolites in plasma,[7],> 67%
same,fraction unbound,[8],0.4 to 0.7
same,solubility,[9],< 2000 µg/mL
same,IC50,[10],42 nM
same,AUC(0-t),in vivo [11],103 ng·h/mL
same,Cmax,in vivo [11],21.4 ng/mL
same,Tmax,in vivo [11],4 h
same,mean DEQ-High score,healthy females,≤ 2
same,Cmax,[12]; RE104 dose 5.5 mg SC (n = 6),18 ng/mL
same,Tmax,[12]; RE104 dose 5.5 mg SC (n = 6),1.12 h
same,half-life,[12]; RE104 dose 5.5 mg SC (n = 6),3.42 h
same,Cmax,[12]; RE104 dose 11 mg SC (n = 6),60 ng/mL
same,Tmax,[12]; RE104 dose 11 mg SC (n = 6),1.21 h
same,half-life,[12]; RE104 dose 11 mg SC (n = 6),3.55 h
same,Cmax,[12]; RE104 dose 22 mg SC (n = 6),77 ng/mL
same,Tmax,[12]; RE104 dose 22 mg SC (n = 6),1.42 h
same,half-life,[12]; RE104 dose 22 mg SC (n = 6),3.27 h
same,Cmax,[12]; RE104 dose 33 mg SC (n = 9),137 ng/mL
same,Tmax,[12]; RE104 dose 33 mg SC (n = 9),1.07 h
same,half-life,[12]; RE104 dose 33 mg SC (n = 9),2.79 h
same,Cmax,[12]; RE104 dose 38 mg SC (n = 6),124 ng/mL
same,Tmax,[12]; RE104 dose 38 mg SC (n = 6),1.08 h
same,half-life,[12]; RE104 dose 38 mg SC (n = 6),2.79 h
same,Cmax,[12]; RE104 dose 44 mg SC (n = 3),275 ng/mL
same,Tmax,[12]; RE104 dose 44 mg SC (n = 3),1.25 h
same,half-life,[12]; RE104 dose 44 mg SC (n = 3),3.76 h
same,elimination half-life (t1/2) in plasma,[13]; RE104 HCl 2 mg/kg SC,0.678 h
same,half-life,"[13]; plasma, iv, 2 mg/kg",0.426 h
same,half-life,"in vivo [14]; iv, 1 mg/kg",0.631 h
same,half-life,"in vivo [14]; sc, 0.5 mg/kg",0.95 h
same,mean terminal half-life,in vivo [14]; RE104 IV dosing,0.63 h
same,mean terminal half-life,in vivo [14]; RE104 SC dosing,0.95 h
